Data published in US20210253651A1, “METHOD FOR PRODUCING ORGANIC COMPOUND-ENCAPSULATING FERRITIN” (Ajinomoto Co., Inc., priority 2018, published 2021).

How the values were obtained:
[1] = target: T1, FTH ferritin (Homo sapiens, UniProt P02794); experiment: one-step process incorporation of small molecule agents into FTH ferritin; format: physicochemical; settings: for Incorporation efficiency (wt %) / Number of agent incorporated: 60 min; for Optimal pH in reaction: pH of buffer giving the largest amount of incorporation within ferritin
T1 construct: made in house; host or cells: Escherichia coli BL21 (DE3), plasmid pET20-FTH
Experimental: All of the reactions were performed in 0.1 mL volume. […] The absorbances were measured using spectrophotometer (DU-800, Beckman Coulter Inc.) for these solutions, and the concentration of contained protein was determined using the protein assay CBB solution (Nacalai Tesque, Inc.) as well as bovine albumin as a standard. Absorbances at 280 nm and 480 nm were measured for Rhodamine B and Congo Red. […] Then, after the absorbances were calibrated based on the absorbances that were derived from the proteins and presumed by the amount of contained protein quantified using the protein assay CBB solution, the concentrations of small molecule agents were determined based on the calibration curves obtained by the absorbances of the molecules. […] As a result, the one-step process enabled incorporating also the small molecule agents with different physical properties such as molecular weight and pKa simply and easily.

[2] = single or first pKa value; cited from earlier work
[3] = cited from earlier work

T1 sequence (P02794 whole entry): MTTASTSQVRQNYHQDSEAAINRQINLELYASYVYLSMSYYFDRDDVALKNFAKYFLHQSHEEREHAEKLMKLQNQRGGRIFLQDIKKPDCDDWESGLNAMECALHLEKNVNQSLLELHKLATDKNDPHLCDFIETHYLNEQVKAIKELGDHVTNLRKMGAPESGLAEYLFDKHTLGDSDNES

| Structure (SMILES) | Incorporation efficiency (wt %) ([1]; pH 6, 20° C.) | Number of agent incorporated ([1]; pH 6, 20° C.) | Incorporation efficiency (wt %) ([1]; pH 6, 40° C.) | Number of agent incorporated ([1]; pH 6, 40° C.) | Incorporation efficiency (wt %) ([1]; pH 6, 60° C.) | Number of agent incorporated ([1]; pH 6, 60° C.) | Optimal pH in reaction [1] | Number of agent incorporated ([1]; pH 4, 40° C.) | Number of agent incorporated ([1]; pH 8, 40° C.) | Number of agent incorporated ([1]; pH 10, 40° C.) | pKa [2] | logP [3] | Incorporation efficiency (wt %) ([1]; pH 4, 40° C.) | Incorporation efficiency (wt %) ([1]; pH 8, 40° C.) | Incorporation efficiency (wt %) ([1]; pH 10, 40° C.) | also measured |
| --- | --- | --- | --- | --- | --- | --- | --- | --- | --- | --- | --- | --- | --- | --- | --- | --- |
| Nc1c(/N=N/c2ccc(-c3ccc(/N=N/c4cc(S(=O)(=O)[O-])c5ccccc5c4N)cc3)cc2)cc(S(=O)(=O)[O-])c2ccccc12.[Na+].[Na+] [Congo Red] | 0.2 wt % | 1.4 | 0.2 wt % | 1.7 | 0.4 wt % | 2.8 | 4 |  |  |  | 4.1 | −1.88 |  |  |  | Incorporation efficiency (wt %) ([1]; pH 3, 25° C.): 0.0 wt %; Number of agent incorporated ([1]; pH 3, 25° C.): 0.2; Incorporation efficiency (wt %) ([1]; pH 4, 25° C.): 0.5 wt %; Number of agent incorporated ([1]; pH 4, 25° C.): 3.7; Incorporation efficiency (wt %) ([1]; pH 5, 25° C.): 0.1 wt %; Number of agent incorporated ([1]; pH 5, 25° C.): 1.0; Incorporation efficiency (wt %) ([1]; pH 6, 10° C.): 0.2 wt %; Number of agent incorporated ([1]; pH 6, 10° C.): 1.4; Incorporation efficiency (wt %) ([1]; pH 6, 25° C.): 0.1 wt %; Number of agent incorporated ([1]; pH 6, 25° C.): 0.9; Incorporation efficiency (wt %) ([1]; pH 6, 30° C.): 0.2 wt %; Number of agent incorporated ([1]; pH 6, 30° C.): 1.6; Incorporation efficiency (wt %) ([1]; pH 6, 50° C.): 0.2 wt %; Number of agent incorporated ([1]; pH 6, 50° C.): 1.8; Incorporation efficiency (wt %) ([1]; pH 7, 25° C.): 0.1 wt %; Number of agent incorporated ([1]; pH 7, 25° C.): 0.7; Incorporation efficiency (wt %) ([1]; pH 8, 25° C.): 0.1 wt %; Number of agent incorporated ([1]; pH 8, 25° C.): 0.8; Incorporation efficiency (wt %) ([1]; pH 9, 25° C.): 0.1 wt %; Number of agent incorporated ([1]; pH 9, 25° C.): 0.8 |
| NC(N)=Nc1nc(CSCCC(N)=NS(N)(=O)=O)cs1 [Famotidine] |  | 36.9 |  | 15.1 |  | 23.4 | 6 | 0.0 | 8.4 | 5.1 | 8.38 |  |  |  |  |  |
| NC(=O)c1cccnc1 [Nicotinamide] |  |  | 0.2 wt % | 6.8 |  |  | 4 | 15.6 | 13.9 | 7.6 | 3.35 | −0.37 | 0.4 wt % | 0.3 wt % | 0.2 wt % |  |

Second part, led by results:

| Incorporation efficiency (wt %) ([1]; pH 6, 20° C.) | Number of agent incorporated ([1]; pH 6, 20° C.) | Incorporation efficiency (wt %) ([1]; pH 6, 40° C.) | Number of agent incorporated ([1]; pH 6, 40° C.) | Incorporation efficiency (wt %) ([1]; pH 6, 60° C.) | Number of agent incorporated ([1]; pH 6, 60° C.) | Optimal pH in reaction [1] | Number of agent incorporated ([1]; pH 4, 40° C.) | Number of agent incorporated ([1]; pH 8, 40° C.) | Number of agent incorporated ([1]; pH 10, 40° C.) | Structure (SMILES) | pKa [2] | logP [3] | Incorporation efficiency (wt %) ([1]; pH 4, 40° C.) | Incorporation efficiency (wt %) ([1]; pH 8, 40° C.) | Incorporation efficiency (wt %) ([1]; pH 10, 40° C.) | also measured |
| --- | --- | --- | --- | --- | --- | --- | --- | --- | --- | --- | --- | --- | --- | --- | --- | --- |
|  |  |  |  |  |  | 4 |  |  |  | CN1CC(=O)NC1=N [Creatinine] | 2.96 | −1.6 |  |  |  | Incorporation efficiency (wt %) ([1]; pH 4, 20° C.): 0.4 wt %; Number of agent incorporated ([1]; pH 4, 20° C.): 15.8; Incorporation efficiency (wt %) ([1]; pH 4, 60° C.): 0.5 wt %; Number of agent incorporated ([1]; pH 4, 60° C.): 24.8 |
| 2.6 wt % | 65.6 | 0.8 wt % | 20.0 | 0.5 wt % | 12.0 | 6 | 8.3 | 12.0 | 4.3 | Nc1cc(N2CCCCC2)nc(N)[n+]1[O-] [Minoxidil] | 4.61 | 1.24 | 0.3 wt % | 0.5 wt % | 0.2 wt % |  |
